pIC50: −log10 of the molar value.
Assays:
Caov-3 cells = assay: Caov3 CTG proliferation assay (CellTiter-Glo); assay type: cell-based; conditions: Homo sapiens, 120 hours treatment, 30 μM top concentration
Experimental: (§1) Cell treatment and cell growth assessment: 18 hours post-seeding in white 384-Viewplate (6007480, PerkinElmer) at 1500 cells/well, Caov3 cells were treated for 120 hours with compounds inhibiting the METTL3/14 activity (10 serial semi-log dilutions, 30 μM as top concentration). Upon treatment, Coav-3 cells were incubated for 10 min at RT with the CellTiter-Glo reagent (G7571, Promega). Measurement of the luminescence signal was performed on a microplate reader (Ensight, PerkinElmer).

METTL3/14 = METTL3/14 (Homo sapiens (Human), UniProt Q86U44); assay: METTL3/14 methyltransferase biochemical assay (RapidFire mass spectrometry, METTL3_14 RFMS)
Chain of METTL3/14 (Q86U44 whole entry): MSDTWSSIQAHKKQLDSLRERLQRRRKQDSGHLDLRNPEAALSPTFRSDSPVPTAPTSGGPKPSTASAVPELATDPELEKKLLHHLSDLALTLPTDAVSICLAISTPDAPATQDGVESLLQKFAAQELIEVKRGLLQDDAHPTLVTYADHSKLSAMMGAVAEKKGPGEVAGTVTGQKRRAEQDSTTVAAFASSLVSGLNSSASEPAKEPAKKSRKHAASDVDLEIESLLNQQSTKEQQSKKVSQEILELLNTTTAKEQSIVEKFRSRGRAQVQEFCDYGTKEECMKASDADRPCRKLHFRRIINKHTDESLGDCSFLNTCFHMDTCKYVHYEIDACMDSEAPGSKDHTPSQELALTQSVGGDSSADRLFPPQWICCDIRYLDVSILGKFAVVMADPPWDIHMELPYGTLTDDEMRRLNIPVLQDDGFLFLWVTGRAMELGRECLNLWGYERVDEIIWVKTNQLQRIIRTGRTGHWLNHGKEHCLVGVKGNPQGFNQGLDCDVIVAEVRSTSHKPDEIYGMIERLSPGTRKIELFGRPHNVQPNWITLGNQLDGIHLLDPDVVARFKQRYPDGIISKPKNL
Chain of METTL3/14 (Q9HCE5 whole entry partner): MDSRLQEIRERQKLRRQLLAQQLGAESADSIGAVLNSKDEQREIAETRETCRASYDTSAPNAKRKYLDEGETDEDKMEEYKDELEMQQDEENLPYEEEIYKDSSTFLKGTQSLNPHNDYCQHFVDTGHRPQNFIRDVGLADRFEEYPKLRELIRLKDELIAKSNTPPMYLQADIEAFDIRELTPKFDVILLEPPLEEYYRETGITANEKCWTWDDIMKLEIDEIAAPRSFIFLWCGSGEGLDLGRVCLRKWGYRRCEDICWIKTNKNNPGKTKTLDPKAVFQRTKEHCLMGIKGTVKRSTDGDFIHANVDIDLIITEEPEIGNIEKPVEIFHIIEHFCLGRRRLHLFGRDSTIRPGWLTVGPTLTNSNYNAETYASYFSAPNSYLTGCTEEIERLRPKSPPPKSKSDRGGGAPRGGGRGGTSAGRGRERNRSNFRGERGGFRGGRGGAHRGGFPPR
Experimental: The enzymatic assay was established to determine IC50 values for inhibition of RNA methyltransferase activity. The enzyme used was full-length his-tagged METTL3 co-expressed with full length FLAG-tagged METTL14 in a baculovirus expression system. […] The reaction was incubated for further 60 minutes at room temperature, and then quenched by the addition of 40 μL 7.5% TCA with two internal product standards (D4-SAH and ^13C10-SAH). After termination, plates were sealed, centrifuged and stored at 4° C. until analysis. […] RNA methyltransferase activity was measured label free using the RapidFireTM mass spectrometry (RF/MS) platform. Stopped and stable assay plates were analyzed on the Agilent RF300 integrated autosampler/solid-phase extraction (SPE) system coupled to an ABSciex 4000 mass spectrometer for the generation of the product S-adenosyl homocysteine (SAH) and normalized to the ratio of signal of the two internal product standards, respectively. Solvent A was water containing 0.1% (v/v) TCA. Solvent B was acetonitrile/0.1% ammonium acetate (8:2, v/v).

KASUMI-1 cells = assay: Kasumi cell assay (CellTiter-Glo cell growth); assay type: cell-based; conditions: Homo sapiens, 120 hours treatment, 30 μM top concentration
Experimental: Cell culture: KASUMI-1 cells (ACC20, Leibniz-Institut DSMZ Deutsche Sammlung von Mikroorganismen und Zellkulturen GmbH) were grown in RPMI 1640 (31870-025, Gibco) supplemented with 20% fetal bovine serum (F1524, Gibco), 1 mM sodium pyruvate (11360-039, Gibco) and 2 mM Glutamax (35050-038, Gibco) in a 5% CO2 humidified incubator at 37° C.
as §1, with “KASUMI-1” for “18”, “were seeded” for “post-seeding”, “ultra-low attachment 384-well culture plate (MS-9384WZ, SBio)” for “white 384-Viewplate (6007480, PerkinElmer)”, “a final concentration of 250,000 cells/ml (35 μL/well) and” for “1500 cells/well, Caov3 cells were”, “Kasumi1” for “Coav-3”

SMILES | pIC50 (METTL3/14) | pIC50 (Caov-3 cells) | pIC50 (KASUMI-1 cells)
Fc1ncn2cccc(-c3cn(Cc4cn5cc(CNCC6CCC6)ccc5n4)nn3)c12 [Example 25, (cyclobutylmethyl)({2-[(4-{1-fluoroimidazo[1,5-a]pyridin-8-yl}-1H-1,2,3-triazol-1-yl)methyl]imidazo[1,2-a]pyridin-6-yl}methyl)amine] | 7.80 | 5.57 | 5.32
COc1cc(-c2cn(Cc3cn4cc(CNCC56CC(F)(C5)C6)ccc4n3)nn2)c2cncn2c1 [Example 26, ({3-fluorobicyclo[1.1.1]pentan-1-yl}methyl)({2-[(4-{6-methoxyimidazo[1,5-a]pyridin-8-yl}-1H-1,2,3-triazol-1-yl)methyl]imidazo[1,2-a]pyridin-6-yl}methyl)amine] | 8.21 | 6.96 | 6.35
COc1cc(-c2cn(Cc3cn4cc(CNCC56CC(C5)C6)ccc4n3)nn2)c2cncn2c1 [Example 28, ({bicyclo[1.1.1]pentan-1-yl}methyl)({2-[(4-{6-methoxyimidazo[1,5-a]pyridin-8-yl}-1H-1,2,3-triazol-1-yl)methyl]imidazo[1,2-a]pyridin-6-yl}methyl)amine] | 8.21 | 6.99 | 6.50
c1cc(-c2cn(Cc3cn4cc(CN5CC6(CCC6)C5)ccc4n3)nn2)c2cncn2c1 [Example 29, 2-({2-[(4-{imidazo[1,5-a]pyridin-8-yl}-1H-1,2,3-triazol-1-yl)methyl]imidazo[1,2-a]pyridin-6-yl}methyl)-2-azaspiro[3.3]heptane] | 8.19 | 6.33 | 5.80
COc1cc(-c2cn(Cc3cn4cc(CN5CC6(CCC6)C5)ccc4n3)nn2)c2cncn2c1 [Example 30, 2-({2-[(4-{6-methoxyimidazo[1,5-a]pyridin-8-yl}-1H-1,2,3-triazol-1-yl)methyl]imidazo[1,2-a]pyridin-6-yl}methyl)-2-azaspiro[3.3]heptane] | 8.21 | 6.22 | 5.68
COc1cnc(C#N)c(-c2cn(Cc3cn4cc(CNCC56CC(F)(C5)C6)ccc4n3)nn2)c1 [Example 41, 3-{1-[(6-{[({3-fluorobicyclo[1.1.1]pentan-1-yl}methyl)amino]methyl}imidazo[1,2-a]pyridin-2-yl)methyl]-1H-1,2,3-triazol-4-yl}-5-methoxypyridine-2-carbonitrile] | 7.80 | 5.39 | 5.58
COc1cncc(-c2cn(Cc3cn4cc(CNCC56CC(F)(C5)C6)ccc4n3)nn2)n1 [Example 44, ({3-fluorobicyclo[1.1.1]pentan-1-yl}methyl)[(2-{[4-(6-methoxypyrazin-2-yl)-1H-1,2,3-triazol-1-yl]methyl}imidazo[1,2-a]pyridin-6-yl)methyl]amine] |  | 5.61 | 5.70
COc1cncc(-c2cn(Cc3cn4cc(CNCC56CC(F)(C5)C6)ccc4n3)nn2)c1 [Example 45, ({3-fluorobicyclo[1.1.1]pentan-1-yl}methyl)[(2-{[4-(5-methoxypyridin-3-yl)-1H-1,2,3-triazol-1-yl]methyl}imidazo[1,2-a]pyridin-6-yl)methyl]amine] |  | 6.04 | 5.60
COc1ccncc1-c1cn(Cc2cn3cc(CNCC45CC(F)(C4)C5)ccc3n2)nn1 [Example 47, ({3-fluorobicyclo[1.1.1]pentan-1-yl}methyl)[(2-{[4-(4-methoxypyridin-3-yl)-1H-1,2,3-triazol-1-yl]methyl}imidazo[1,2-a]pyridin-6-yl)methyl]amine] | 7.89 | 5.86 | 5.35

Now from value to compound, other results behind:

pIC50 (METTL3/14) | SMILES | pIC50 (Caov-3 cells) | pIC50 (KASUMI-1 cells)
8.21 | O=C(NCc1cn2cc(CNCC34CC(F)(C3)C4)ccc2n1)c1cc(=O)n2ccsc2n1 [Example 19, N-[(6-{[({3-fluorobicyclo[1.1.1]pentan-1-yl}methyl)amino]methyl}imidazo[1,2-a]pyridin-2-yl)methyl]-5-oxo-5H-[1,3]thiazolo[3,2-a]pyrimidine-7-carboxamide] | 6.44 | 5.87
8.21 | COc1cc(-c2cn(Cc3cn4cc(CNCC5CCC5)ccc4n3)nn2)c2cncn2c1 [Example 22, (cyclobutylmethyl)({2-[(4-{6-methoxyimidazo[1,5-a]pyridin-8-yl}-1H-1,2,3-triazol-1-yl)methyl]imidazo[1,2-a]pyridin-6-yl}methyl)amine] | 6.52 | 5.94
8.21 | c1cc(-c2cn(Cc3cn4cc(CNCC5CCC5)ccc4n3)nn2)c2cncn2c1 [Example 23, (cyclobutylmethyl)({2-[(4-{imidazo[1,5-a]pyridin-8-yl}-1H-1,2,3-triazol-1-yl)methyl]imidazo[1,2-a]pyridin-6-yl}methyl)amine] | 6.05 | 5.53
8.22 | N#Cc1ncc(N2CCOCC2)cc1-c1cn(Cc2cn3cc(CNCC45CC(F)(C4)C5)ccc3n2)nn1 [Example 51, 3-{1-[(6-{[({3-fluorobicyclo[1.1.1]pentan-1-yl}methyl)amino]methyl}imidazo[1,2-a]pyridin-2-yl)methyl]-1H-1,2,3-triazol-4-yl}-5-(morpholin-4-yl)pyridine-2-carbonitrile] | 5.87 | 5.73
8.22 | FC12CC(CNCc3ccc4nc(Cn5cc(-c6cncc(N7CCOCC7)c6)nn5)cn4c3)(C1)C2 [Example 52, ({3-fluorobicyclo[1.1.1]pentan-1-yl}methyl)({[2-({4-[5-(morpholin-4-yl)pyridin-3-yl]-1H-1,2,3-triazol-1-yl}methyl)imidazo[1,2-a]pyridin-6-yl]methyl})amine] | 6.27 | 5.79
